Consider one compound from US20150098983A1, “Methods and Compositions for Treating Withdrawal Syndromes Using Non-Sedative Dexmedetomidine Transdermal Compositions” (Teikoku Pharma USA, Inc., priority 2013, published 2015).

Like-named read-outs stand apart in the source and are kept apart here.

`Cc1cccc([C@H](C)c2cnc[nH]2)c1C` [Dexmedetomidine]: the solubility of dexmedetomidine result is, setting by setting: (in Duro-Tak 87-2979) “less than 2%”; (in Duro-Tak 387/87-2353 (acid functionalized acrylate adhesive)) 10-15%; (in hydroxyl functionalized acrylate polymer) “less than 1%”; (in lauryl lactate) 5 to 10%; (in levulinic acid) ~60%; (in oleic acid) ~40%. In addition, the solubility of dexmedetomidine (in propylene glycolmonolaurate) fell in the range of 5 to 10%.
